# Target: T1, DC-SIGN (Homo sapiens, UniProt Q9NNX6)
# T1 construct: made in house
# Assay: Inhibition of the binding of soluble DC-SIGN to immobilized HIV-1 Bal gp120 (plate ELISA)
# Settings: soluble DC-SIGN/mAb complex, gp120 captured on D7324 plate; preliminary assay; FIG. 3
# Description: Preliminary assays were conducted on the inhibition of the synthetic polyvalent compounds against the binding between HIV-1 gp120 and DC-SIGN. Specifically, plates were coated with 5 ug/mL D7324 anti-gp120 capture antibody, in 1×PBS O/N at RT. Blocking buffer was 5% BSA in 1×TBST+1 mM CaCL2, assay/dilution buffer was 2% BSA in 1×TBST+1 mM CaCL2 and wash buffer was 1×TBST+1 mM CaCL2 (4 washes, 200 uL per well). Gp120 (CHOK1, uQuant) was captured on the D7324 plate at saturation, 500 ng/mL in assay buffer for 2 hour at RT. sDC-SIGN supernatant (Nov. 6, 2004) was supplemented with 1 mM CaCL2 and pre-complexed with 3 ug/mL anti-DC-SIGN mAb (120507, Sigma) for 1 hour at RT. Mannose products were titered 1:2 in assay buffer (Starts 1:4 in column 2), sDC-SIGN/mAb complexes were added to the titered mannose at about 1:5 (155 uL mannose+45 uL sDC-SIGN/mAb) (no sDC-SIGN in column 12), sDC-SIGN/mAb complexes mixed with mannose compounds were allowed to bind to the Gp120 plate for 1 hour at RT. Any bound sDC-SIGN/mAb complexes were detected with goat anti-mouse-IgG-HRP (Axcell) 1:2000 in assay buffer, absorbed with 2% sheep serum.
# T1 sequence (Q9NNX6 59-404): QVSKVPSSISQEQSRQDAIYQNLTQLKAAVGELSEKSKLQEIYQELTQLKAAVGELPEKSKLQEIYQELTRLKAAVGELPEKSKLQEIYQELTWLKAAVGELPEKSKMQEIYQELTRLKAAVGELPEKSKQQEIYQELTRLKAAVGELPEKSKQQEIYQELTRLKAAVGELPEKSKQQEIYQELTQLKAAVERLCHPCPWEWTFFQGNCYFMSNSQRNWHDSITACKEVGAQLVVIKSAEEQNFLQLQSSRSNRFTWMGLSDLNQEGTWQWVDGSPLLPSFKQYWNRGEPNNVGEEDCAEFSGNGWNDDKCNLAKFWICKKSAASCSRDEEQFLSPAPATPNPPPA
structure (smiles),measurement,value
"CC(=O)N[C@@H]1[C@@H](O)[C@H](O[C@@H]2O[C@H](CO)[C@@H](O[C@@H]3O[C@H](CO[C@H]4O[C@H](CO[C@H]5O[C@H](CO)[C@@H](O)[C@H](O)[C@@H]5O[C@H]5O[C@H](CO)[C@@H](O)[C@H](O)[C@@H]5O)[C@@H](O)[C@H](O[C@H]5O[C@H](CO)[C@@H](O)[C@H](O)[C@@H]5O[C@H]5O[C@H](CO)[C@@H](O)[C@H](O)[C@@H]5O)[C@@H]4O)[C@@H](O)[C@H](O[C@H]4O[C@H](CO)[C@@H](O)[C@H](O)[C@@H]4O[C@H]4O[C@H](CO)[C@@H](O)[C@H](O)[C@@H]4O[C@H]4O[C@H](CO)[C@@H](O)[C@H](O)[C@@H]4O)[C@@H]3O)[C@H](O)[C@H]2NC(C)=O)[C@@H](CO)O[C@H]1NC(=O)C[C@H](N)C(=O)O [Man9, Man9GlcNAc2Asn]",inhibition of the binding of soluble DC-SIGN to immobilized gp120 (in words),much better than the disaccharide and monosaccharide in inhibition

# From patent US20090117154A1, “SYNTHETIC POLYVALENT CARBOHYDRATES AS COMPONENTS OF MICROBICIDES” (priority 2005, published 2009)
